Data reported in PubChem BioAssay (NCI).
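Each compound was tested at five concentrations against cells in 96-well plates for 48 hours. GI50 marks 50% less growth. TGI marks complete inhibition of growth.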

Columns and labels:
Experiment in all cases: NCI-60 cell line screen, 48 h
HCT-15 colon = test system: HCT-15 colon
HOP-62 NSCLC = test system: HOP-62 NSCLC
HT29 colon = test system: HT29 colon
K-562 leukemia = test system: K-562 leukemia
LOX IMVI melanoma = test system: LOX IMVI melanoma
NCI-H23 lung = test system: NCI-H23 lung
OVCAR-3 ovarian = test system: OVCAR-3 ovarian
SK-OV-3 ovarian = test system: SK-OV-3 ovarian
SNB-75 CNS = test system: SNB-75 CNS
SK-MEL-2 melanoma = test system: SK-MEL-2 melanoma

SMILES | TGI (HCT-15 colon) [µM] | TGI (HOP-62 NSCLC) [µM] | TGI (HT29 colon) [µM] | TGI (K-562 leukemia) [µM] | TGI (LOX IMVI melanoma) [µM] | TGI (NCI-H23 lung) [µM] | TGI (OVCAR-3 ovarian) [µM] | TGI (SK-OV-3 ovarian) [µM] | TGI (SNB-75 CNS) [µM] | TGI (SK-MEL-2 melanoma) [µM] | GI50 (HCT-15 colon) [nM] | GI50 (HOP-62 NSCLC) [nM] | GI50 (HT29 colon) [nM] | GI50 (K-562 leukemia) [nM] | GI50 (LOX IMVI melanoma) [nM] | GI50 (NCI-H23 lung) [nM] | GI50 (OVCAR-3 ovarian) [nM] | GI50 (SK-MEL-2 melanoma) [nM] | GI50 (SNB-75 CNS) [nM] | GI50 (SK-OV-3 ovarian) [nM]
CCOC(=O)c1c(SC(=O)c2cc(OC)c(OC)c(OC)c2)n(-c2ccccc2)c(=S)n(-c2ccccc2)c1=O | > 100 | > 100 | > 100 | > 100 | > 100 | > 100 | > 100 | > 100 | > 100 | – | – | – | – | – | – | – | – | – | – | –
Nc1ccc2c(c1)C1Oc3ccccc3CC1CO2 (stereo not given) | 35.6 | > 100 | > 100 | > 100 | > 100 | > 100 | > 100 | > 100 | – | > 100 | – | – | – | – | – | – | – | – | – | –
CC(=O)Nc1ccc2c(C(=O)O)c(C)c(=O)[nH]c2n1 | > 100 | – | > 100 | > 100 | – | > 100 | – | > 100 | – | > 100 | – | – | – | – | – | – | – | – | – | –
C(=N\Nc1ncc(-c2cc3cc4c(cc3o2)OCO4)s1)/c1c[nH]c2ccccc12 | 3.25 | 7.95 | > 100 | > 100 | 1.7 | 5.19 | 1.89 | – | 2.89 | 8.07 | 1140 | 1600 | 3320 | 382 | 426 | 1770 | 536 | 2600 | 1400 | –
COC12C=C/C(=C(/C(=O)OCc3ccncn3)C(=O)CCCCCCCCC3(OC)C=C/C(=C(/C(=O)OCc4ccncn4)C(=O)CCCCCCCC1)O3)O2 | 1.12 | 0.6 | 0.689 | – | 0.503 | 0.944 | 0.903 | 3.75 | 17.7 | 5.55 | 278 | 225 | 266 | – | 211 | 293 | 317 | 428 | 1520 | 409
C=CCOc1ccc(C2c3c([nH][nH]c3=O)CC(O)(OCC)C2C(=O)OCC)cc1OC (stereo not given) | > 100 | > 100 | > 100 | – | > 100 | > 100 | > 100 | – | > 100 | > 100 | – | – | – | – | – | – | – | – | – | –
COc1ccc2oc(S(=O)(=O)N3CC(CCl)c4ccc([N+](=O)[O-])cc43)cc2c1 (stereo not given) | 3.3 | – | 68 | 0.285 | 1.38 | > 24 | 0.457 | 4.83 | > 36.8 | 2.96 | – | – | – | – | – | – | – | – | – | –
N#CCCNCCN(CCN(C(=O)Nc1ccccc1)c1ccccc1)C(=O)Nc1ccccc1 | > 100 | > 100 | > 100 | > 100 | > 100 | > 100 | – | > 100 | > 100 | > 100 | – | – | – | – | – | – | – | – | – | –
Cc1cc2c(cc1-c1cc3c(cc1C)C(C(C)C)=C(O)C(=O)/C3=C\Nc1nc(-c3ccccc3)cs1)/C(=C/Nc1nc(-c3ccccc3)cs1)C(=O)C(O)=C2C(C)C | 58.4 | 31.7 | 50.2 | > 100 | – | 28.8 | 36 | 95.2 | > 100 | 50.9 | – | – | – | – | – | – | – | – | – | –
C=Nc1ccc([N+](=O)[O-])cc1 | > 100 | – | > 100 | > 60.5 | > 100 | > 100 | > 100 | > 100 | > 100 | > 100 | – | – | – | – | – | – | – | – | – | –
CCOC(=O)C1=CN=C2C(=O)N(c3ccccc3)N(C)C2(C)C1=N (stereo not given) | > 100 | – | – | > 100 | > 100 | > 100 | > 100 | > 100 | > 100 | > 100 | – | – | – | – | – | – | – | – | – | –
O=C1COC(c2ccccc2O)=NN1CCCN1CCCC1 | > 100 | > 100 | > 100 | – | – | > 100 | > 100 | > 100 | > 100 | > 100 | – | – | – | – | – | – | – | – | – | –
CCN(CC)CCCCCCCCNc1c2ccc(Cl)cc2nc2ccc(OC)cc12 | 2.46 | 3.13 | 2.25 | 2.23 | 4.94 | 7.25 | 4.33 | – | 3.15 | – | 966 | 1400 | 597 | 376 | 1480 | 2280 | 1910 | – | 1490 | –
O=C1C=Cc2c(Cl)sc(Cl)c21 | 3.14 | 4.2 | 3.34 | 3.21 | 1.89 | 5.68 | – | 28.5 | 13.1 | 5.32 | – | – | – | – | – | – | – | – | – | –
Cc1ccccc1N=C(N)NC#N | > 100 | > 100 | > 100 | > 100 | > 100 | > 100 | – | > 100 | > 100 | > 100 | – | – | – | – | – | – | – | – | – | –
O=[N+]([O-])C(/C(Cl)=C(/Cl)N1CCOCC1)=C1\NCCO1 | > 100 | > 100 | > 100 | – | – | > 100 | > 100 | > 100 | > 100 | > 100 | – | – | – | – | – | – | – | – | – | –
C[C@]12CC[C@H]3[C@@H](CCC4=CC(=O)C=C[C@@]43O)[C@@H]1CCC2=O | > 100 | > 100 | – | > 100 | > 100 | > 100 | > 100 | – | > 100 | > 100 | – | – | – | – | – | – | – | – | – | –
COc1ccc(-c2oc3ccc(C)cc3c(=O)c2O)cc1 | > 100 | > 100 | > 100 | – | > 100 | > 100 | > 100 | > 100 | > 100 | > 100 | – | – | – | – | – | – | – | – | – | –
CN(C(=O)C12C3C4(C(=O)O)C1(C(=O)N(C)C(C)(C)C)C1C2(C(=O)O)C3(C(=O)N(C)C(C)(C)C)C14C(=O)N(C)C(C)(C)C)C(C)(C)C (stereo not given) | > 100 | > 100 | > 100 | > 100 | > 100 | > 100 | > 100 | – | – | > 100 | – | – | – | – | – | – | – | – | – | –
CC(=O)N1N=C(c2c(O)ccc3ccccc23)CC1C(=O)c1ccco1 (stereo not given) | > 100 | > 100 | > 100 | 49.2 | – | 84.6 | 44 | > 100 | > 100 | 43.1 | – | – | – | – | – | – | – | – | – | –
COCn1c2ccc(OC(C)=O)cc2c2c(=O)oc(C)nc21 | > 100 | > 100 | > 100 | > 100 | > 100 | > 100 | – | > 100 | > 100 | > 100 | – | – | – | – | – | – | – | – | – | –
